According to article PMC4836378 (Journal of medicinal chemistry, 2016):
Like-named read-outs stand apart in the source and are kept apart here.

Columns and labels:
CYP26A1 = target: T1, CYP26A1 (Homo sapiens, UniProt O43174); test: CYP26A1 inhibition assay; conditions: for Selectivity towards CYP26A1 compared to CYP26B1 (ratio of IC50): CYP26B1 IC50 versus CYP26A1 IC50
T1 sequence (O43174 1-497): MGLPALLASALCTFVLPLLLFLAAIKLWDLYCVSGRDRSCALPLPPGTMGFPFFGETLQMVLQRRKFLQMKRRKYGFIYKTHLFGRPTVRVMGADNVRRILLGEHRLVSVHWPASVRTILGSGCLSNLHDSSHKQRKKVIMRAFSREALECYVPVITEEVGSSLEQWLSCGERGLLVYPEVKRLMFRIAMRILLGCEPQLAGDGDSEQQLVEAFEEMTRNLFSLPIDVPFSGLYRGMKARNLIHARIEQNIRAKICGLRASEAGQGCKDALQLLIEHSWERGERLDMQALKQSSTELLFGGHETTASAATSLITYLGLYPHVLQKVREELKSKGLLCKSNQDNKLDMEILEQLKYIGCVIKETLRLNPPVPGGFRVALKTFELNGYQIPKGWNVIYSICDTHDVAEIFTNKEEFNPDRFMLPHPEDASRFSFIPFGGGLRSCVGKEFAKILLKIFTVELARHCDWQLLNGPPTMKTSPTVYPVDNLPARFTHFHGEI

CYP26B1 = target: T2, CYP26B1 (Homo sapiens, UniProt Q9NR63); test: CYP26B1 inhibition assay
T2 sequence (Q9NR63 1-512): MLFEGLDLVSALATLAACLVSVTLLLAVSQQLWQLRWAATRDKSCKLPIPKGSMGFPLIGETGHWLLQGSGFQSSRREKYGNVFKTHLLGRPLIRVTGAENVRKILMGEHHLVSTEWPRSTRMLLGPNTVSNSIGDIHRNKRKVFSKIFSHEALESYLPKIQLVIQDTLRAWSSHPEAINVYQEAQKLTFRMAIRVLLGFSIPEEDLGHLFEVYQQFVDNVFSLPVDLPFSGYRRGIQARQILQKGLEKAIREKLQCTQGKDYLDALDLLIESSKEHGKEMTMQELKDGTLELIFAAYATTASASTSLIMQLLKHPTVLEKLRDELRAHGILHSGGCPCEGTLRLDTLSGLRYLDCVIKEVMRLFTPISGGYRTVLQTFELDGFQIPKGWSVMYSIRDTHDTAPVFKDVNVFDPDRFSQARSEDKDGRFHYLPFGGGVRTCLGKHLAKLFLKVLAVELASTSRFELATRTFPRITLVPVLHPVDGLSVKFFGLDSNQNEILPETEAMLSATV

human RARα = target: T3, human RARα (Homo sapiens, UniProt P10276); test: Luciferase-based RARα reporter assay; format: cell-based; conditions: 1 μM compound, data not shown
T3 sequence (P10276 1-462): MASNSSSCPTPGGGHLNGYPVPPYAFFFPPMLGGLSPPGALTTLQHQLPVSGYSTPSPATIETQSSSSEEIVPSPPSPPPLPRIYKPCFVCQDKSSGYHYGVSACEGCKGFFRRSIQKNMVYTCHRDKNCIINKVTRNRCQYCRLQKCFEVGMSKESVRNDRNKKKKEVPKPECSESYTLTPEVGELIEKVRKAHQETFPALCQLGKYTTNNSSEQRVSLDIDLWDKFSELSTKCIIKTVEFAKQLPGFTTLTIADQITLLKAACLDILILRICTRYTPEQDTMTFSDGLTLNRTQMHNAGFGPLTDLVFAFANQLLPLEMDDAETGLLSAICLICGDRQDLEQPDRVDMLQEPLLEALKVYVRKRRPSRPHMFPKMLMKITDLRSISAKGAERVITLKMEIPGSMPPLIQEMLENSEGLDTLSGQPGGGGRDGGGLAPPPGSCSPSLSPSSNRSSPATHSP

human RARγ = target: T4, human RARγ (Homo sapiens, UniProt P13631); test: Luciferase-based RARγ reporter assay; format: cell-based; conditions: 1 μM compound, data not shown
T4 sequence (P13631 1-454): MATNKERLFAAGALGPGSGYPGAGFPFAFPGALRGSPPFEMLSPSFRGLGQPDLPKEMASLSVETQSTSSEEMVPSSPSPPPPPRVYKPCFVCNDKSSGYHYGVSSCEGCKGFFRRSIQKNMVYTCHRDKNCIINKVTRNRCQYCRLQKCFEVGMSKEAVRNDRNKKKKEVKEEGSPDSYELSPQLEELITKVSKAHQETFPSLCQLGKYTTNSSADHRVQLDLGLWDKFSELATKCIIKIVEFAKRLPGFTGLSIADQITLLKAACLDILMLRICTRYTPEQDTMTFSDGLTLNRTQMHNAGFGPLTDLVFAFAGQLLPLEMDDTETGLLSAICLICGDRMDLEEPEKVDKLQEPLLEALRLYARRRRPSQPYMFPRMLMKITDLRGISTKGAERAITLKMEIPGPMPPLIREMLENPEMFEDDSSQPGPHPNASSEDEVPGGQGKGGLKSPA

RARs in HepG2 cells = test: Induction of RARβ and CYP26A1 mRNA in HepG2 cells; format: cell-based, human; conditions: for RAR antagonistic activity: 100 nM atRA + 1 μM compound; for Magnitude of induction of RARβ and CYP26A1 mRNA compared to atRA treatment alone: 100 nM atRA in combination with 1 μM compound; for Activation of RARs (induction of CYP26A1 and RARβ mRNA): 1 μM compound alone, 24 hours, versus vehicle and atRA
CYP3A4 = CYP3A4 (Homo sapiens, UniProt P08684); test: CYP3A4 inhibition in human liver microsomes; format: in vitro ADME; conditions: midazolam; for Percent inhibition of CYP3A4: 10 μM inhibitor, 10 µM
CYP2D6 = CYP2D6 (Homo sapiens, UniProt P10635); test: CYP2D6 inhibition in human liver microsomes; format: in vitro ADME
CYP2C19 = CYP2C19 (Homo sapiens, UniProt P33261); test: CYP2C19 inhibition in human liver microsomes; format: in vitro ADME; conditions: 10 μM inhibitor, (S)-mephenytoin
CYP2B6 = target: T5, CYP2B6 (Homo sapiens, UniProt P20813); test: CYP2B6 inhibition in human liver microsomes; format: in vitro ADME; conditions: 10 μM inhibitor, bupropion
T5 sequence (P20813 1-491): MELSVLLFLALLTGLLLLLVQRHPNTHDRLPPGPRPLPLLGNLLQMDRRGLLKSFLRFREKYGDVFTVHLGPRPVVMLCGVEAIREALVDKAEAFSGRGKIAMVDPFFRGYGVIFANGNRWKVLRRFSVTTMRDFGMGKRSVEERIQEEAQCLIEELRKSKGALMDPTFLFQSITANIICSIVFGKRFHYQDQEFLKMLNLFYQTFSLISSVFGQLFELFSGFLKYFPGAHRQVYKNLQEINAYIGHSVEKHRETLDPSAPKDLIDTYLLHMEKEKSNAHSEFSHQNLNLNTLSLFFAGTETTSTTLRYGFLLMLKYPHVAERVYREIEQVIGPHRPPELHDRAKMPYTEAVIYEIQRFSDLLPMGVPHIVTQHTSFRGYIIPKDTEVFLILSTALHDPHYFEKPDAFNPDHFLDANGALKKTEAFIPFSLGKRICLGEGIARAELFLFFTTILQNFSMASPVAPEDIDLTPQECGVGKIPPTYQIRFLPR

[1] = system: atRA metabolism in HepG2 cells; conditions: HepG2, 24 hour treatment
[2] = substrate: CC1=C(/C=C/C(C)=C\C=C\C(C)=C\C(=O)O)C(C)(C)CCC1; test: cells, lysate or membranes named; conditions: other: recombinant CYP26B1, 50-1000 nM 9-cis-RA; pH 7.4; 37.0 °C

Chain of CYP3A4 (P08684 whole entry): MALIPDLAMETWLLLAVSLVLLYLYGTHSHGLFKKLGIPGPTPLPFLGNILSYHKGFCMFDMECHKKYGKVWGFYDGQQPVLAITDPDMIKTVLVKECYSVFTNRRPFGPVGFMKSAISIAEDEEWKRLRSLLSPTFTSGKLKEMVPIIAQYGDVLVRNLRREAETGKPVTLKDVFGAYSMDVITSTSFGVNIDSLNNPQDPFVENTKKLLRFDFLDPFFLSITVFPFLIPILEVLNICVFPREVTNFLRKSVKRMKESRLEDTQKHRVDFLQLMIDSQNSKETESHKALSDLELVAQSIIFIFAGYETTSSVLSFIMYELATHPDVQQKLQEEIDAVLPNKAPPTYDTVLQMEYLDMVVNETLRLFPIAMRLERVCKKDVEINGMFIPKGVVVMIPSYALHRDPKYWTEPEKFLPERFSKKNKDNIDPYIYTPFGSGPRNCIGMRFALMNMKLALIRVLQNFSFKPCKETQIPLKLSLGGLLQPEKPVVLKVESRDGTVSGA
Chain of CYP2D6 (P10635 whole entry): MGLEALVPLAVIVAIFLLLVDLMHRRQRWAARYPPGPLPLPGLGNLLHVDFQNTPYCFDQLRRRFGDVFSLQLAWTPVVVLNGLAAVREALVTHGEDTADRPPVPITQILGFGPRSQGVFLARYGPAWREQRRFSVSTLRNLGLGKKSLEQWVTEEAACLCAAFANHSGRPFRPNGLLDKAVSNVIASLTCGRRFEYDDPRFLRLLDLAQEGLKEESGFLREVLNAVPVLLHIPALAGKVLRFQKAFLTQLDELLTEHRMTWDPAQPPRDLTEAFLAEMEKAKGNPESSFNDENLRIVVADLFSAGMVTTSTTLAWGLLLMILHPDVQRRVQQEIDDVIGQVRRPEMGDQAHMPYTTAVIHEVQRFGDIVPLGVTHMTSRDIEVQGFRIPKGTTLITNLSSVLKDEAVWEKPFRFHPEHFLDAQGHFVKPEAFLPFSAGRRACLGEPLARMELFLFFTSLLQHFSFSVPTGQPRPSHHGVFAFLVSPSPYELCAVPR
Chain of CYP2C19 (P33261 whole entry): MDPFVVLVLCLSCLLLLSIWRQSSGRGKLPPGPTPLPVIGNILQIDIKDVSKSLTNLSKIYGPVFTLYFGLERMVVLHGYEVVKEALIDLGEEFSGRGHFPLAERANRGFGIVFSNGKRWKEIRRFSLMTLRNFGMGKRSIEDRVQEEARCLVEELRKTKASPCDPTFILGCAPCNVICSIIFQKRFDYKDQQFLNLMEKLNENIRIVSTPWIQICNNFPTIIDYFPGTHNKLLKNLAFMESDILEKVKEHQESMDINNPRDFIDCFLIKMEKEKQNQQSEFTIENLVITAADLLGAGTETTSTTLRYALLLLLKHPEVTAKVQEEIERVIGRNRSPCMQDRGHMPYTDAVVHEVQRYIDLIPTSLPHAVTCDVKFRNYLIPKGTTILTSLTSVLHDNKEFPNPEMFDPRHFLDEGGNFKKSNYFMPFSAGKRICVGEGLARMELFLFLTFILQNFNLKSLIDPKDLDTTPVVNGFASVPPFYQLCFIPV

What does the source list for `CCC(CC)C(c1ccc(Nc2nc3ccccc3s2)cc1)n1cncn1` (stereo not shown) [Compound 3, talarozole]?
Ki (CYP26A1): 5.1 nM; Ki (CYP26B1): 0.46 nM

`CC1(C)CCC(C)(C)c2cc(C3(c4ccc5cc(C(=O)O)ccc5c4)OCCO3)ccc21` [Compound 13b, 6-(2-(5,5,8,8-Tetramethyl-5,6,7,8-tetrahydronaphthalen-2-yl)-1,3-dioxolan-2-yl)-2-naphthoic acid] was tested. Which “Selectivity towards CYP26A1 compared to CYP26B1 (ratio of IC50)” value (CYP26A1) did it give?
Its value is 10–20 fold.

How did the “Selectivity towards CYP26A1 compared to CYP26B1 (ratio of IC50)” value (CYP26A1) turn out when `CC1(C)CCC(C)(C)c2cc(C3(c4ccc5cc(C(=O)O)ccc5c4)SCCS3)ccc21` [Compound 15b, 6-(2-(5,5,8,8-Tetramethyl-5,6,7,8-tetrahydronaphthalen-2-yl)-1,3-dithiolan-2-yl)-2-naphthoic acid] was run?
Its value is 10–20 fold.

Which results are given for `CC1(C)CCC(C)(C)c2cc(C3(c4ccc(/C=C/C(=O)O)cc4)OCCO3)ccc21` [Compound 22, (E)-3-(4-(2-(5,5,8,8-Tetramethyl-5,6,7,8-tetrahydronaphthalen-2-yl)-1,3-dioxolan-2-yl)phenyl)-acrylic acid]?
RARα activation (human RARα): No measurable RARα and RARγ activation was detected; RARγ activation (human RARγ): No measurable RARα and RARγ activation was detected; RAR antagonistic activity (RARs in HepG2 cells): do not exhibit an RAR antagonistic activity; Magnitude of induction of RARβ and CYP26A1 mRNA compared to atRA treatment alone (RARs in HepG2 cells): significantly increased; Activation of RARs (induction of CYP26A1 and RARβ mRNA) (RARs in HepG2 cells): none of the three compounds resulted in activation; Percent inhibition of CYP3A4 (CYP3A4): free of any CYP3A4 inhibition; inhibition at 10 µM (CYP2D6; human, probe dextromethorphan): 50%

What does the source list for `CC1(C)CCC(C)(C)c2cc(C3(c4ccc(CCC(=O)O)cc4)OCCO3)ccc21` [Compound 24, 3-{4-[2-(5,5,8,8-Tetramethyl-5,6,7,8-tetrahydronaphthalen-2-yl)-1,3-dioxolan-2-yl]phenyl}4 propanoic acid]?
RARα activation (human RARα): No measurable RARα and RARγ activation was detected; RARγ activation (human RARγ): No measurable RARα and RARγ activation was detected; RAR antagonistic activity (RARs in HepG2 cells): do not exhibit an RAR antagonistic activity; Magnitude of induction of RARβ and CYP26A1 mRNA compared to atRA treatment alone (RARs in HepG2 cells): significantly increased; Activation of RARs (induction of CYP26A1 and RARβ mRNA) (RARs in HepG2 cells): none of the three compounds resulted in activation; Percent inhibition of CYP3A4 (CYP3A4): free of any CYP3A4 inhibition; IC50 for CYP3A4 inhibition (CYP3A4): no concentration dependent inhibition; Percent inhibition of CYP2D6 (CYP2D6; 10 μM inhibitor, dextromethorphan, 10 µM): free of any significant inhibition; Percent inhibition of CYP2C19 (CYP2C19): free of any significant inhibition; Percent inhibition of CYP2B6 (CYP2B6): free of any significant inhibition

With `CC1=C(/C=C/C(C)=C/C=C/C(C)=C/C(=O)O)C(C)(C)CCC1` [atRA, all-trans-retinoic acid] as the molecule, how does the “atRA in cell media” value ([1]; 100nM atRA alone) read?
The value was 13.2 ± 0.14 nM.

What about the “atRA in cell media” value ([1]; 1μM atRA alone) of the same molecule?
Its value is 214 ± 13.6 nM.

B1: CYP26B1 (Homo sapiens) (protein)
chain: T2 sequence (Q9NR63 1-512)
With B1 as the molecule, how does the Km [2] read?
Its Km is 0.555 µM.

What about the kcat [2] of the same molecule?
The kcat was 3.6 pmol/min/pmol P450.
